This note sets out measurements from patent publication US8163909B2, “Substituted hydroxyethyl amine compounds as beta-secretase modulators and methods of use” (Amgen Inc., priority 2007, dated 2012).

pIC50: −log10 of the molar value. Where two headings read alike, the source gives them in different places. Bounds are passed on as bounds.

In test [1] the target is Beta Secretase enzyme (BACE) (Homo sapiens, UniProt P56817). Nature of the test: In vitro enzymatic BACE FRET (fluorescence resonance energy transfer) assay.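 Further: fluorescence read after 1 h with 50 nM quenched peptide substrate spanning the BACE cleavage site, in pH 4.2 acetate buffer containing 10% DMSO and nonionic detergent.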 It is filed as biochemical.
Chain of Beta Secretase enzyme (BACE) (P56817 46-501): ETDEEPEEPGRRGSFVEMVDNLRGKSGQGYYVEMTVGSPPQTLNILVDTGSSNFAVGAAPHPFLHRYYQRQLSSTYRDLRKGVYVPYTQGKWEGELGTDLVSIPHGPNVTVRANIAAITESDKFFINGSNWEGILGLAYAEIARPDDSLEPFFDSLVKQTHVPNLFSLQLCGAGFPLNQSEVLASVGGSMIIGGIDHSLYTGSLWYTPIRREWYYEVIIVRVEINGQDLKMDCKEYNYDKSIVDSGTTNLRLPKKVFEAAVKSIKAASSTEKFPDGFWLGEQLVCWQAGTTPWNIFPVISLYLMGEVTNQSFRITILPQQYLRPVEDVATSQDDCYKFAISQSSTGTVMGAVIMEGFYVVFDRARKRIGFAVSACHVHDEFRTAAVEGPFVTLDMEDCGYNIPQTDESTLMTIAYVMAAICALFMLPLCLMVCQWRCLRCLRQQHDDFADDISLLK
The test system of test [2] is Aβ40 in conditioned medium of cells stably expressing Amyloid Precursor Protein (APP). Put plainly: In vitro BACE cell-based assay (Aβ40 in conditioned medium, sandwich ELISA). (In general: ELISA stands for enzyme-linked immunosorbent assay.);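 further: compounds added as a dilution series, secreted peptide quantified by europium time-resolved fluorescence readout, potency fitted from percent of control versus compound concentration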
The mark [3] stands for this setting: Table 1, read-out: BACE1 FRET assay.
Where [4] appears, read: Homo sapiens, HEK293, Table 1, HEK cells, read-out: HEK cell assay.
Setting [5] is: BACE enzyme FRET assay, read-out: BACE1 FRET assay (IC50).
[6] abbreviates: HEK cells, cell-based assay, read-out: HEK cell assay (IC50).
The mark [7] stands for this setting: BACE enzyme assay, read-out: BACE1 FRET assay (IC50).
Setting [8] is: Homo sapiens, HEK293, HEK cells, cell-based assay, read-out: HEK cell assay (IC50).
Where [9] appears, read: Table 2, read-out: BACE1 FRET assay.
Where [10] appears, read: Homo sapiens, HEK293, Table 2, HEK cells, read-out: HEK cell assay.

Consider `COCC(=O)N[C@@H](Cc1cccc(F)c1)[C@H](O)CN[C@H]1CC2(CCC2)Oc2ncc(CC(C)C)cc21` [compound 329], for which the pIC50 is 8.49 in test [1] (setting [3]) and 8.22 in test [2] (setting [4]).
For the compound `COCC(=O)NC(Cc1cccc(F)c1)C(O)CNC1CC2(CC(O)C2)Oc2cnccc21` [compound 236, N-((1S,2R)-1-((3-fluorophenyl)methyl)-2-hydroxy-3-(((1r,3R,4′S)-3-hydroxy-3′,4′-dihydrospiro[cyclobutane-1,2′-pyrano[2,3-c]pyridin]-4′-yl)amino)propyl)-2-(methyloxy)acetamide], the pIC50 in test [1] (setting [5]) was 5.29; in test [2] (setting [6]), 6.57.
Consider `CC(=O)N[C@@H](Cc1ccc(F)cc1)[C@H](O)CN[C@H]1CC2(CCC2)C(F)(F)c2ncc(CC(C)(C)C)cc21` [compound 165], for which the pIC50 in test [1] (setting [7]) is 6.97; in test [2] (setting [8]) it was 6.96.
The matching figures for `CC(C)(C)[C@@H](F)c1cnc2c(c1)[C@@H](NC[C@@H](O)[C@H](Cc1ccc3c(c1)OCO3)NC(=O)CF)CC1(CCC1)O2` [compound 185]: 7.73 and 7.58.
With `COCC(=O)N[C@@H](Cc1ccc2c(c1)OCO2)[C@H](O)CN[C@H]1CC2(CC(F)(F)C2)Oc2ncc(CC(C)(C)C)cc21` [compound 52], the pIC50 in test [1] (setting [7]) was 7.38; in test [2] (setting [8]), 6.99.
Take `CC(=O)N[C@@H](Cc1ccc(F)cc1)[C@H](O)CN[C@H]1CC2(CCC2)Oc2ncc(C[C@@H](C)C(F)F)cc21` [compound 199]: the pIC50 in test [1] (setting [5]) is 7.35; in test [2] (setting [8]) it was 7.23.
Turning to `CO[C@H](C)C(=O)N[C@@H](Cc1ccc2c(c1)OCO2)[C@H](O)CN[C@H]1CC2(CCC2)Oc2ncc(CC(C)(C)C(F)(F)F)cc21` [compound 363], the pIC50 was 7.31 in test [1] (setting [3]) and 6.80 in test [2] (setting [4]).
As to `COCC(=O)NC(Cc1ccc(F)cc1)C(O)CNC1CC2(CC(O)C2)Oc2ncc(CC(C)C)cc21` [compound 249, N-((1S,2R)-1-((4-fluorophenyl)methyl)-2-hydroxy-3-(((1s,3S,4′S)-3-hydroxy-6′-(2-methylpropyl)-3′,4′-dihydrospiro[cyclobutane-1,2′-pyrano[2,3-b]pyridin]-4′-yl)amino)propyl)-2-(methyloxy)acetamide], the values for the pIC50 in test [1] (setting [5]) and in test [2] (setting [8]) were 8.19 and 7.95, respectively.
`CO[C@H](C)C(=O)N[C@@H](Cc1cccc(F)c1F)[C@H](O)CN[C@H]1CC2(CCC2)Oc2ncc(CC(C)(C)F)cc21` [compound 71]: the pIC50 in test [1] (setting [7]) was 7.47; in test [2] (setting [8]), 7.03.
Regarding `CNc1nc(CC(C)(C)C)cc2c1OC1(CCC1)C[C@@H]2NC[C@@H](O)[C@H](Cc1cccc(F)c1)NC(=O)COC` [compound 148], the pIC50 in test [1] (setting [7]) was 7.41; in test [2] (setting [8]) it was 8.18.
For the compound `CO[C@H](C)C(=O)N[C@@H](Cc1cccc(F)c1)[C@H](O)CN[C@H]1CC2(CCC2)Oc2ncc(CC(C)(C)C(F)(F)F)cc21` [compound 74], the pIC50 in test [1] (setting [7]) is 7.52; in test [2] (setting [8]) it was 7.02.
With `CC(C)C(=O)N[C@@H](Cc1ccc2c(c1)OCO2)[C@H](O)CN[C@H]1CC2(CCC2)Oc2ncc(CC(C)(C)C)cc21` [compound 881], the IC50 stood at 0.144 µM in test [1] (BACE enzyme assay, IC50's in uM, read-out: BACE1 FRET assay) and 0.813 µM in test [2] (Homo sapiens, HEK293, cell-based assay, HEK cells, IC50's in uM, read-out: HEK cell assay).
For the compound `COCC(=O)N[C@@H](Cc1ccc(F)cc1)[C@H](O)CNC1CC2(CC(F)(F)C2)Oc2ncc(CC(C)(C)C)cc21` (some centres unmarked) [compound 53], the pIC50 was 7.96 in test [1] (setting [7]) and 7.19 in test [2] (setting [8]).
For the compound `CC(=O)N[C@@H](Cc1ccc2c(c1)OCO2)[C@H](O)CN[C@H]1CC2(CCC2)Oc2ncc(CC3(C(F)(F)F)CC3)cc21` [compound 312], the results for the pIC50 in test [1] (setting [5]) and in test [2] (setting [8]) were 7.21 and 6.71, respectively.
As to `CO[C@H](C)C(=O)N[C@@H](Cc1cc(F)c2c(c1)OCO2)[C@H](O)CN[C@H]1CC2(CCC2)Oc2ncc(CC(C)C)cc21` [compound 343], the pIC50 is 7.46 in test [1] (setting [3]) and 7.38 in test [2] (setting [4]).
Consider `CC(=O)N[C@@H](Cc1ccc(F)cc1)[C@H](O)CN[C@@H]1C[C@]2(CC[C@H]2O)Oc2ncc(CC(C)(C)C)cc21` [compound 115], for which the figures for the pIC50 in test [1] (setting [7]) and in test [2] (setting [8]) were 5.16 and 5.26, respectively.
The matching figures for `COCC(=O)N[C@@H](Cc1ccc(F)cc1)[C@H](O)CN[C@H]1CC2(CCC2)Oc2ncc(CC(C)(C)C(F)(F)F)cc21` [compound 76]: 8.43 and 7.96.
`CC(F)C(=O)N[C@@H](Cc1ccc2c(c1)OCO2)[C@H](O)CN[C@H]1CC2(CCC2)Oc2ncc(CC(C)(C)C)cc21` (stereo partly drawn) [compound 452, N-((1S,2R)-1-(1,3-benzodioxol-5-ylmethyl)-3-(((4′S)-6′-(2,2-dimethylpropyl)-3′,4′-dihydrospiro[cyclobutane-1,2′-pyrano[2,3-b]pyridin]-4′-yl)amino)-2-hydroxypropyl)-2-fluoropropanamide]: the pIC50 in test [1] (setting [9]) is 7.80; in test [2] (setting [10]), 7.41.
For the compound `COCC(=O)N[C@@H](Cc1ccc2c(c1)OCO2)[C@H](O)CN[C@H]1CC2(CCC2)Oc2ncc(C[C@H](C)C(F)(F)F)cc21` [compound 339], the pIC50 is 7.36 in test [1] (setting [3]) and 6.90 in test [2] (setting [4]).
For the compound `CC(=O)N[C@@H](Cc1ccc2c(c1)OCO2)[C@H](O)CN[C@H]1CC2(CCC2)Cc2ncc(CC(C)(C)C)cc21` [compound 167], the pIC50 in test [1] (setting [7]) was 6.90; in test [2] (setting [8]), 7.17.
For `COCC(=O)N[C@@H](Cc1cccc(F)c1)[C@H](O)CN[C@H]1CC2(CC(F)(F)C2)Oc2ncc(CC(C)(F)F)cc21` [compound 280], the pIC50 in test [1] (setting [5]) is 7.72; in test [2] (setting [8]), 6.76.
Turning to `COCC(=O)N[C@@H](Cc1cc(F)cc(F)c1)[C@H](O)CN[C@H]1CC2(CCCC2)C(=O)c2ccc(CC(C)(C)C)cc21` [compound 89], the pIC50 in test [1] (setting [7]) is 8.31; in test [2] (setting [8]) it was 7.23.
As for `COCC(=O)N[C@@H](Cc1ccc(F)cc1)[C@H](O)CN[C@H]1CC2(CCC2)Oc2c(F)cc(CC(C)(C)C)cc21` [compound 229], the figures for the pIC50 in test [1] (setting [5]) and in test [2] (setting [8]) were 8.09 and 7.07, respectively.
Consider `CC(=O)N[C@@H](Cc1ccc(F)cc1)[C@H](O)CN[C@H]1CC2(CCC2)Oc2ncc(NC(=O)C(C)(C)C)cc21` [compound 84], for which the results for the pIC50 in test [1] (setting [7]) and in test [2] (setting [8]) were 5.31 and under 5.00, respectively.
In the case of `CO[C@@H](C)C(=O)N[C@@H](Cc1ccc(F)cc1)[C@H](O)CN[C@H]1CC2(CCC2)Oc2ncc(CC(C)(C)C)cc21` [compound 155], the pIC50 is 7.40 in test [1] (setting [7]) and 7.12 in test [2] (setting [8]).
Consider `CC(=O)N[C@@H](Cc1cccc(F)c1)[C@H](O)CN[C@H]1CC2(CCC2)Oc2ncc(CC(C)(F)F)cc21` [compound 277], for which the pIC50 in test [1] (setting [5]) was 8.21; in test [2] (setting [8]) it was 8.03.
As for `COCC(=O)N[C@@H](Cc1ccccc1)[C@H](O)CN[C@H]1CC2(CCC2)Oc2ncc(CC3(C(F)(F)F)CC3)cc21` [compound 319], the values for the pIC50 in test [1] (setting [3]) and in test [2] (setting [4]) were 7.25 and 6.51, respectively.
For the compound `CC(=O)N[C@@H](Cc1cc(F)c2c(c1)OCO2)[C@H](O)CN[C@H]1CC2(CCC2)Oc2ncc(CC(C)(C)C)cc21` [compound 306], the pIC50 in test [1] (setting [5]) is 8.37; in test [2] (setting [8]) it was 8.13.
Turning to `CC(=O)N[C@@H](Cc1ccc2c(c1)OCO2)[C@H](O)CN[C@H]1CC2(CCC2)Oc2c1cc(CC(C)(C)C)nc2Cl` [compound 124], the pIC50 was 7.54 in test [1] (setting [7]) and 6.94 in test [2] (setting [8]).
As to `COCC(=O)N[C@@H](Cc1cc(F)cc(F)c1)[C@H](O)CN[C@H]1CC2(CCC2)Oc2ncc(CC(F)(F)F)cc21` [compound 348], the pIC50 in test [1] (setting [3]) was 8.16; in test [2] (setting [4]), 7.74.
For the compound `COCC(=O)N[C@@H](Cc1cccc(C#N)c1)[C@H](O)CN[C@H]1CC2(CCC2)Oc2ncc(CC(C)(C)F)cc21` [compound 57], the results for the pIC50 in test [1] (setting [7]) and in test [2] (setting [8]) were 8.53 and 8.28, respectively.
For the compound `COCC(=O)NC(Cc1ccc(F)c(F)c1)C(O)CNC1CC2(CC(O)C2)Oc2ncc(CC(C)(C)C)cc21` [compound 233, N-((1S,2R)-1-((3,4-difluorophenyl)methyl)-3-(((1s,3S,4′S)-6′-(2,2-dimethylpropyl)-3-hydroxy-3′,4′-dihydrospiro[cyclobutane-1,2′-pyrano[2,3-b]pyridin]-4′-yl)amino)-2-hydroxypropyl)-2-(methyloxy)acetamide], the pIC50 is 8.14 in test [1] (setting [5]) and 8.13 in test [2] (setting [8]).
As for `CC(=O)N[C@@H](Cc1ccc(F)cc1)[C@H](O)CN[C@H]1CC2(CCC2)Oc2ncc(CC3(C(F)(F)F)CC3)cc21` [compound 310], the pIC50 is 7.30 in test [1] (setting [5]) and 6.78 in test [2] (setting [8]).
The matching figures for `COC(C)C(=O)NC(Cc1ccc2c(c1)OCO2)C(O)CNC1CC2(CC(C)C2)Oc2ncc(CC(C)(C)C)cc21` [compound 239, (2R)—N-((1S,2R)-1-(1,3-benzodioxol-5-ylmethyl)-3-(((1s,3R,4′S)-6′-(2,2-dimethylpropyl)-3-methyl-3′,4′-dihydrospiro[cyclobutane-1,2′-pyrano[2,3-b]pyridin]-4′-yl)amino)-2-hydroxypropyl)-2-(methyloxy)propanamide]: 7.75 and 7.46.
Regarding “N-((1S,2R)-1-(4-thiazolylmethyl)-3-(((5′S)-3′-(2,2-dimethylpropyl)-5′,8′-dihydro-6′H-spiro[cyclobutane-1,7′-quinolin]-5′-yl)amino)-2-hydroxypropyl)-2-(methyloxy)acetamide [compound 176]”, the pIC50 was 7.98 in test [1] (setting [7]) and 7.77 in test [2] (setting [6]).
In the case of `C[C@H](F)C(=O)N[C@@H](Cc1ccc2c(c1)OCO2)[C@H](O)CN[C@H]1CC2(CCC2)Oc2ncc(CC(C)(C)C)cc21` [Example 483], the figures for the pIC50 in test [1] (setting [9]) and in test [2] (setting [10]) were 7.74 and 7.31, respectively.
Regarding `CC(=O)N[C@@H](Cc1ccc(F)cc1)[C@H](O)CN[C@H]1CC2(CCC2)Oc2ccc(CC(C)(C)C#N)cc21` [compound 161], the figures for the pIC50 in test [1] (setting [7]) and in test [2] (setting [8]) were 7.95 and 7.76, respectively.
